Earlier results as cited in patent US5607940A (priority 1994, dated 1997).

Tests used:
[1] = silver anode; listed as MHCl, hydrochloride
[2] = in vivo

| Structure (SMILES) | utilization of morphine [1] | time to clinically effective blood levels [2] [min] |
| --- | --- | --- |
| CN1CC[C@]23c4c5ccc(O)c4O[C@H]2[C@@H](O)C=C[C@H]3[C@H]1C5.Cl [morphine hydrochloride] | about 10% | – |
| CN1CC[C@]23c4c5ccc(O)c4O[C@H]2[C@@H](O)C=C[C@H]3[C@H]1C5 [morphine] | – | 15 to 20 |
